# Laboratory results reported in patent US4389398A, “Amino glycoside antibiotics having antiprotozoal and anthelmintic activity” (priority 1978, dated 1983).
# Where two headings read alike, the source gives them in different places.
# Key:
# Trichomonas vaginalis [1] = details: at somewhat high dose ranges; cited from earlier work
# Trichomonas vaginalis [2] = test: In vitro activity against Trichomonas vaginalis; format: cell-based; details: for MIC / MBC: Trichomonas vaginalis; for MIC: read-out: Minimal 99% Suppression Level; for MBC: read-out: Minimal Cidal Level
# Source text: In Table VI below is set forth the in vitro activity of the compounds of this invention against T. vaginalis. The test procedure used was substantially as described by R. J. Schnitzer on pages 289-331 in Experimental Chemotherapy, Volume 1, Academic Press, New York (1963).
# Entamoeba histolytica [3] = details: Albach et al., Am. J. Trop. Med. Hyg. 15, 885 (1965); cited from earlier work
# [4] = Chronic toxicity (ataxia) in cats after daily subcutaneous dosing; format: in vivo
# Source text: There appears to be a causal relationship between high doses of amino-glycoside type antibiotics given over an extended period of time and vestibular damage wherein one of the early manifestations is ataxia. […] Moreover, they may be used at such dosages for a time interval substantially beyond that normally required to eliminate infection without causing ataxia; and with minimal, if any, toxic manifestations. Thus, gentamicin B and gentamicin B1 represent a substantial improvement over antibiotics of this class (amino-glycoside) that are currently in use.
# Aerobacter aerogenes = test: In vitro minimal inhibitory concentration, Aerobacter aerogenes; format: cell-based; details: pH 7.4
# Protocol: (§1) In Table III below is set forth the in vitro minimal inhibitory concentration of gentamicin B, gentamicin B1 and gentamicin X all in the free base form against a variety of gram positive and gram negative microorganisms. The experiments were carried out in a yeast beef broth medium at pH 7.4.
# Histomonas meleagridis = test: Stated activity against Histomonas meleagridis
# Bacillus subtilis = test: In vitro minimal inhibitory concentration, Bacillus subtilis; format: cell-based; details: pH 7.4
# Protocol: as §1
# [5] = tested on: Staphylococcus aureus Smith; test: Protective activity in mice, Staphylococcus aureus Smith infection; format: in vivo; details: sc, subcutaneous one hour after infection, survivors at 48 hours, read-out: PD50
# Protocol: (§2) Infected non-treated controls die in about 18 to 24 hours. Generally 5-7 dose levels are administered to mice weighing about 20 grams in groups of 7-10.
# Staphylococcus aureus = test: In vitro minimal inhibitory concentration, Staphylococcus aureus; format: cell-based; details: pH 7.4
# Protocol: as §1
# Streptococcus pyogenes = test: In vitro minimal inhibitory concentration, Streptococcus pyogenes; format: cell-based; details: pH 7.4
# Protocol: as §1
# Klebsiella pneumoniae = test: In vitro minimal inhibitory concentration, Klebsiella pneumoniae; format: cell-based; details: pH 7.4
# Protocol: as §1
# Streptococcus pyogenes C = test: Protective activity in mice, Streptococcus pyogenes C infection; format: in vivo; details: sc, subcutaneous one hour after infection, survivors at 48 hours, read-out: PD50
# Protocol: as §2
# Pseudomonas aeruginosa = test: In vitro minimal inhibitory concentration, Pseudomonas aeruginosa; format: cell-based; details: pH 7.4
# Protocol: as §1
# Syphacia obvelata [6] = test: Anthelmintic activity in vivo against Syphacia obvelata in mice; design: species or system male Millerton mice; details: for anthelmintic activity (in words): male Millerton mice
# Staphylococcus aureus W = test: Protective activity in mice, Staphylococcus aureus W infection; format: in vivo; details: sc, subcutaneous one hour after infection, survivors at 48 hours, read-out: PD50
# Protocol: as §2
# [7] = tested on: Pseudomonas aeruginosa SC; test: Protective activity in mice, Pseudomonas aeruginosa SC infection; format: in vivo; details: subcutaneous one hour after infection, survivors at 48 hours, read-out: PD50
# Protocol: as §2
# [8] = tested on: Staphylococcus aureus Gray; test: Protective activity in mice, Staphylococcus aureus Gray infection; format: in vivo; details: sc, subcutaneous one hour after infection, survivors at 48 hours, read-out: PD50
# Protocol: as §2
# in vivo = details: mouse
# Protocol: The acute toxicity of gentamicin B, gentamicin B1 and gentamicin X is determined in male CF-1 (Carworth Farms) mice weighing about 20 grams each.
# Entamoeba histolytica [9] = test: Stated activity against Entamoeba histolytica
# Salmonella paratyphi B = test: Protective activity in mice, Salmonella paratyphi B infection; format: in vivo; details: Salmonella enterica, sc, subcutaneous one hour after infection, survivors at 48 hours, read-out: PD50
# Protocol: as §2
# Syphacia obvelata [10] = test: Stated anthelmintic activity against pinworms such as Syphacia obvelata
# Sarcina lutea = test: In vitro minimal inhibitory concentration, Sarcina lutea; format: cell-based; details: pH 7.4
# Protocol: as §1
# Escherichia coli = test: In vitro minimal inhibitory concentration, Escherichia coli; format: cell-based; details: pH 7.4
# Protocol: as §1
# Shigella sp. M324 = test: In vitro minimal inhibitory concentration, Shigella sp. M324; format: cell-based; details: free base; yeast beef broth medium, pH 7.4
# Protocol: as §1
# protozoa = details: cited from earlier work
# helminths = details: cited from earlier work
# Entamoeba hystolytica = test: Activity against Entamoeba hystolytica (MIC and minimal cidal concentration); format: cell-based; details: 48 hours
# Trichomonas vaginalis [11] = test: Stated activity against Trichomonas vaginalis
# Escherichia coli SC = test: Protective activity in mice, Escherichia coli SC infection; format: in vivo; details: subcutaneous one hour after infection, survivors at 48 hours, read-out: PD50
# Protocol: as §2
# Trichomonas foetus = test: Stated activity against Trichomonas foetus
# [12] = free base, yeast beef broth medium, read-out: MIC
compound,measurement,setting,value
"Gentamicin C [Garamycin®, reference compound]",activity against T. vaginalis (in words),Trichomonas vaginalis [1],only slight activity
same,Minimal 99% Suppression Level,Trichomonas vaginalis [2]; 24 hours,250 µg/mL
same,Minimal Cidal Level,Trichomonas vaginalis [2]; 24 hours,> 250 µg/mL
same,Minimal 99% Suppression Level,Trichomonas vaginalis [2]; 48 hours,100 µg/mL
same,Minimal Cidal Level,Trichomonas vaginalis [2]; 48 hours,100 µg/mL
same,activity against E. histolytica (in words),Entamoeba histolytica [3],relatively ineffective
CNC1C(O)C(OC2C(N)CC(N)C(OC3OC(CN)C(O)C(O)C3O)C2O)OCC1(C)O (centres unmarked) [Gentamicin B],ataxic potential (in words),[4]; in vivo,low ataxic potential
same,"period of administration to cause impairment of the ""righting reflex"" and ataxia (in words)",[4]; in vivo,required substantially longer periods of administration at high doses
same,MIC,Aerobacter aerogenes,0.08 mg/L
same,antiprotozoal activity (in words),Histomonas meleagridis,to a lesser extent
same,MIC,Bacillus subtilis,0.8 mg/L
same,ED50,[5],5 mg/kg
same,MIC,Staphylococcus aureus,0.3 to 3 mg/L
same,MIC,Streptococcus pyogenes,3 mg/L
same,MIC,Klebsiella pneumoniae,3 mg/L
same,ED50,Streptococcus pyogenes C,15 mg/kg
same,MIC,Pseudomonas aeruginosa,0.03 to 0.08 mg/L
same,% Infected,"Syphacia obvelata [6]; 8 mg/kg/day, 0.008% in diet",67%
same,Mean Worm Burden,"Syphacia obvelata [6]; 8 mg/kg/day, 0.008% in diet",29.5
same,% Infected,"Syphacia obvelata [6]; 39 mg/kg/day, 0.02% in diet",0%
same,Mean Worm Burden,"Syphacia obvelata [6]; 39 mg/kg/day, 0.02% in diet",0
same,% Infected,"Syphacia obvelata [6]; 100 mg/kg/day, 0.0625% in diet",0%
same,Mean Worm Burden,"Syphacia obvelata [6]; 100 mg/kg/day, 0.0625% in diet",0
same,% Infected,"Syphacia obvelata [6]; 259 mg/kg/day, 0.25% in diet",0%
same,Mean Worm Burden,"Syphacia obvelata [6]; 259 mg/kg/day, 0.25% in diet",0
same,minimal effective dose,"Syphacia obvelata [6]; Syphacia obvelata, read-out: minimum dosage with anthelmintic activity",39 mg/kg/day
same,anthelmintic activity (in words),Syphacia obvelata [6],exhibit anthelmintic activity
same,ED50,Staphylococcus aureus W,50 mg/kg
same,ED50,[7],2 mg/kg
same,ED50,[8],20 mg/kg
same,LD50,in vivo; ip,1750 mg/kg
same,LD50,in vivo; iv,228 mg/kg
same,LD50,in vivo; po,> 250 mg/kg
same,LD50,in vivo; sc,> 1500 mg/kg
same,antiprotozoal activity (in words),Entamoeba histolytica [9],to a lesser extent
same,ED50,Salmonella paratyphi B,5 mg/kg
same,MIC,Trichomonas vaginalis [2]; 24 h,25 mg/L
same,MBC,Trichomonas vaginalis [2]; 24 h,> 250 mg/L
same,MIC,Trichomonas vaginalis [2]; 48 h,25 mg/L
same,MBC,Trichomonas vaginalis [2]; 48 h,25 mg/L
same,anthelmintic activity (in words),Syphacia obvelata [10],effective
same,MIC,Sarcina lutea,0.3 mg/L
same,MIC,Escherichia coli,0.03 to 0.3 mg/L
same,MIC,Shigella sp. M324,5 mg/L
NC[C@@H]1O[C@H](O[C@H]2[C@@H](O)[C@H](O[C@@H]3[C@@H](O)[C@H](N)C[C@H](N)[C@H]3O[C@H]3O[C@H](CO)[C@@H](O)[C@H](O)[C@H]3N)O[C@@H]2CO)[C@H](N)[C@@H](O)[C@@H]1O [paromomycin],antiprotozoal activity (in words),protozoa,known to exhibit antiprotozoal activity to any substantial degree
same,anthelmintic activity (in words),helminths,exhibit anthelmintic activity in reasonably useful dosage ranges
CNC1C(O)C(OC2C(N)CC(N)C(OC3OC(CO)C(O)C(O)C3N)C2O)OCC1(C)O (centres unmarked) [Gentamicin X],antiprotozoal activity (in words),Histomonas meleagridis,effective
same,MIC,Bacillus subtilis; [12],0.03 mg/L
same,MBC,Entamoeba hystolytica,7 mg/L
same,MIC,Entamoeba hystolytica; read-out: minimal inhibitory concentration,4 mg/L
same,MIC,Staphylococcus aureus; [12],0.08 to 0.75 mg/L
same,MIC,Streptococcus pyogenes; [12],0.3 to 0.75 mg/L
same,MIC,Klebsiella pneumoniae; [12],0.75 mg/L
same,MIC,Pseudomonas aeruginosa; [12],0.3 to 0.75 mg/L
same,antiprotozoal activity (in words),Trichomonas vaginalis [11],effective
same,anthelmintic effect (in words),Syphacia obvelata [6]; 62 mg/kg/day,partially effective
same,% Infected,"Syphacia obvelata [6]; 62 mg/kg/day, 0.05% in diet",83%
same,Mean Worm Burden,"Syphacia obvelata [6]; 62 mg/kg/day, 0.05% in diet",27
same,anthelmintic effect (in words),Syphacia obvelata [6]; 310 mg/kg/day,totally effective
same,% Infected,"Syphacia obvelata [6]; 310 mg/kg/day, 0.25% in diet",0%
same,Mean Worm Burden,"Syphacia obvelata [6]; 310 mg/kg/day, 0.25% in diet",0
same,anthelmintic activity (in words),Syphacia obvelata [6],exhibit anthelmintic activity
same,ED50,Escherichia coli SC,1.5 mg/kg
same,antiprotozoal activity (in words),Trichomonas foetus,effective
same,ED50,[7],7 mg/kg
same,ED50,[8],4 mg/kg
same,LD50,"in vivo; in vivo, ip",> 1000 mg/kg
same,LD50,"in vivo; in vivo, iv",225 mg/kg
same,antiprotozoal activity (in words),Entamoeba histolytica [9],effective
same,MIC,Trichomonas vaginalis [2]; 48 hours,2.5 mg/L
same,MBC,Trichomonas vaginalis [2]; 48 hours,10 mg/L
same,anthelmintic activity (in words),Syphacia obvelata [10],effective
same,MIC,Escherichia coli; [12],0.3 mg/L
CNC1C(O)C(OC2C(N)CC(N)C(OC3OC(C(C)N)C(O)C(O)C3O)C2O)OCC1(C)O (centres unmarked) [Gentamicin B1],Average No. Days to become ataxic,[4]; 40 mg/kg/day subcutaneous,108.0 days
same,Average No. Days to become ataxic,[4]; 60 mg/kg/day subcutaneous,69.0 days
same,Average No. Days to become ataxic,[4]; 240 mg/kg/day subcutaneous,21.0 days
same,"period of administration to cause impairment of the ""righting reflex"" and ataxia (in words)",[4]; high doses,required substantially longer periods of administration at high doses
same,ataxic potential (in words),[4]; see Table VIII,low ataxic potential
same,MIC,Aerobacter aerogenes; [12],0.08 mg/L
same,antiprotozoal activity (in words),Histomonas meleagridis,to a lesser extent
same,MIC,Bacillus subtilis; [12],3 mg/L
same,ED50,[5],2.5 mg/kg
same,MIC,Staphylococcus aureus; [12],0.3 to 3 mg/L
same,MIC,Streptococcus pyogenes; [12],3 mg/L
same,MIC,Klebsiella pneumoniae; [12],3 mg/L
same,ED50,Streptococcus pyogenes C,18 mg/kg
same,MIC,Pseudomonas aeruginosa; [12],0.08 mg/L
same,ED50,Staphylococcus aureus W,50 mg/kg
same,ED50,[7],2 mg/kg
same,ED50,[8],30 mg/kg
same,LD50,"in vivo; in vivo, ip",1600 mg/kg
same,LD50,"in vivo; in vivo, iv",230 mg/kg
same,LD50,"in vivo; in vivo, po",> 250 mg/kg
same,LD50,"in vivo; in vivo, sc",> 1500 mg/kg
same,antiprotozoal activity (in words),Entamoeba histolytica [9],to a lesser extent
same,ED50,Salmonella paratyphi B,4 mg/kg
same,MIC,Trichomonas vaginalis [2]; 24 hours,25 mg/L
same,MBC,Trichomonas vaginalis [2]; 24 hours,> 250 mg/L
same,MIC,Trichomonas vaginalis [2]; 48 hours,10 to 25 mg/L
same,MBC,Trichomonas vaginalis [2]; 48 hours,25 mg/L
same,anthelmintic activity (in words),Syphacia obvelata [10],effective
same,MIC,Sarcina lutea; [12],0.3 mg/L
same,MIC,Escherichia coli; [12],0.08 to 0.3 mg/L
same,MIC,Shigella sp. M324,5 mg/L
